Measured values taken from patent publication US20050106554A1, “Cryopreservation of pluripotent stem cells” (priority 2003, published 2005).

Legend:
HES cells [1] = assay: Trypan blue exclusion after cryopreservation of HES colonies in suspension; assay type: cell-based, human; details: DMSO 0 to 10% in freezing medium, Trypan blue (FIG. 1)
Procedure: In order to cryopreserve ES cells in suspension, cells were grown to approximately 1000-10,000 cell colonies on Matrigel™ or a MEF feeder layer. Average colony size was determined by counting colony number in a representative sample, then dispersing cells in the colony by treatment with 10 mg/ml dispase and counting cell number. 1 mg/ml collagenase was used to detach colonies from the plate and the colonies were resuspended in freezing medium containing FBS, DMSO and CM at varying concentrations. Cells were not dispersed during freezing. The solution was not seeded to form extracellular ice. 1 ml of 1-3×10^5 cells/ml were placed in a cryovial and frozen at approximately −1° C. per minute. Initial studies were performed by placing cells in a Nalgene Cryo 1° C. freeze container in a −80° C. freezer, and later samples were frozen in a controlled-rate freezer (Forma Scientific, Model 8026). […] After reaching −80° C., cells were stored in liquid nitrogen. HES cells were harvested from a flat-bottomed 24-well tissue culture plate coated with Matrigel™ by addition of trypsin-EDTA (0.25% trypsin, 1 mM EDTA) until colonies were completely dispersed. HES cells were resuspended in 500 μl HES medium containing 10% FBS. […] Total cell number and the fraction of cells that incorporated Trypan blue were counted on a hemacytometer. […]

human keratinocytes = details: intracellular trehalose on the order of 0.2M; cited from earlier work
HES cells [2] = assay: Cell viability by MTT and Alamar blue assays after cryopreservation of adherent HES colonies; assay type: cell-based, human
Procedure: In this example, cells were grown to approximately 1000-10,000 cell colonies on Matrigel™ or a MEF feeder layer in a 24 well plate. Average colony size was determined by counting colony number in a representative sample, then dispersing cells in the colony by treatment with 10 mg/ml dispase and counting cell number. The growth medium was aspirated from each well and a top layer of Matrigel™ was poured over the adherent colonies by diluting 6 mg Matrigel™ in 12 ml CM/F+ (conditioned medium+bFGF) and adding 0.5 ml to each well of the 24 well plate. The plate was incubated at 37° C. in a humidified 5% CO2 incubator for 1 hr and the Matrigel™ solution was aspirated from the plate. Then, 0.5 ml growth medium (HES or CM/F+ was added to each well and cells were cultured in the Matrigel™ for up to 2 days. Growth medium was aspirated from each well and 0.5 ml freezing medium containing varying concentrations of FBS, DMSO, and CM was added to each well. The fresh freezing medium was made on the day of freezing. The freezing medium generally contains 10% DMSO, 30% FBS and 60% conditioned HES media. The medium on the plate was aspirated off and replaced with 0.5 ml freezing medium.
The plate was sealed with parafilm and frozen to −80° C. at −1° C. per minute. Initial studies were performed by placing cells in a parafilm-sealed Styrofoam box in a −80° C. freezer, and later samples were frozen in a controlled-rate freezer (Model 8026, Forma Scientific). […] The solution was not seeded to form extracellular ice. The plates containing the cells were then transferred to liquid nitrogen and stored 5-7 days, which was long enough to stabilize the cells but permitted a reasonable experimental throughput.
To thaw the ES cells, plates were placed in a 37° C. water bath and swirled to thaw as rapidly as possible. After thawing, 1 ml fresh CM/F+ medium was added in a drop-wise manner to each well, then aspirated. Fresh media (0.5 ml) was added to each well and the cells were incubated at 37° C. in a humidified 5% CO2 incubator. […]
HES cells were cultured grown on flat-bottomed 24-well tissue culture plates coated with Matrigel™, with 0.5 ml CM/F+ in each well. […] Within an hour, absorbance at 595 nm was measured on a plate reading spectrophotometer (TECAN Genios). A standard curve for the MTT assay (not shown) was generated by growing HES colonies to different concentrations, ranging from 5×10^4 cells per well to 2×10^6 cells per well (determined by counting dispersed cells on a hemacytometer) on a Matrigel™-coated 24 well plate.
HES cells were cultured on flat-bottomed 24-well tissue culture plates coated with Matrigel™, with 0.5 ml CM/F+ in each well. […] Then absorbance was measured on a TECAN Genios plate reader at 595 nm. […]

murine 3T3 fibroblasts = details: intracellular trehalose on the order of 0.2M; cited from earlier work
human pancreatic islets = details: trehalose formulations added to cryopreserved islets; cited from earlier work
HES colonies = assay: Colony recovery (colony count) after cryopreservation of adherent HES colonies; assay type: cell-based, human; details: adherent without top Matrigel layer, 5 days after thawing
Procedure: In addition to providing higher cell viability, cryopreservation of adherent colonies increases the number of colonies that are able to remain attached to the surface and eventually grow (i.e., higher recovery rate). […] In referring to FIG. 4, approximately 10^6 HES cells were cultured in the well of a Matrigel™-coated 24 well plate. Colonies in sample a were harvested from the plate as intact colonies (were not dispersed) and suspended in cryopreservation media containing 10% DMSO, 30% FBS, and 60% CM/F+. Samples b-e were preserved attached to the Matrigel™ layer in the same cryopreservation media. Sample b was preserved without an additional layer of Matrigel™ poured over the cells prior to freezing, c with a Matrigel™ layer poured 1 hr prior to freezing, d with a Matrigel™ layer poured 24 hr prior to freezing, and e with a Matrigel™ layer poured 48 hr prior to freezing. All samples were stored in liquid nitrogen and thawed after 3 days, then grown for 1-2 weeks. Colonies were then counted to determine colony recovery. Error bars represent SEM for at least four independent trials.
Loading cells with 35 mM trehalose for 24 hours prior to freezing, and then freezing in medium containing DMSO results in an increase in the number of adherent colonies following thawing; virtually all colonies remain attached to the surface and can grow (FIG. 10). […]

[3] = test system: hematopoeitic precursor cells; details: trehalose added to cryopreservation media containing DMSO and FBS; cited from earlier work
[4] = test system: SSEA4 expression on HES cells; assay: SSEA4 expression on cryopreserved HES cells by flow cytometry; assay type: cell-based, human; details: attached to Matrigel, loaded with 35 mM trehalose for 1 day; 10% DMSO, 30% FBS, 60% CM/F+ medium
Procedure: SSEA4 expression was determined by flow cytometry. After thawing, cells were allowed to grow on Matrigel™ in CM/F+ medium for 7 days, then colonies were removed from Matrigel™ by 1 mg/ml collagenase IV (GIBCO/BRL) treatment. Cells were dispersed by treatment with a 0.05% trypsin, 0.53 mM EDTA solution (GIBCO/BRL) for 5-10 minutes and filtered through a 40 μm mesh. 100 μl of the cell suspension containing 5×10^6 cells/ml was added to a sample tube and a control tube. 1 μl of MC813-70 (anti-SSEA4) (Kannagi et al. 1983) was added to the test tube and 5 μl of 1 mg/ml mouse IgG (Sigma) was added to the control tube. Tubes were vortexed and incubated on ice for 30 min. […] Samples were analyzed using a FACScan flow cytometer (Becton Dickinson) and Cellquest software (Becton Dickinson). […] The fluorescein signal was obtained through a 530/30 band pass filter and the mean fluorescence values for the IgG control and test samples were determined.
Furthermore, in addition to retention of OCT4 expression (see FIG. 6), applicants observed that when HES colonies were frozen in suspension in cryovials, adherent to Matrigel™, embedded in Matrigel™, and loaded with trehalose were able to maintain SSEA4 expression after recovery (FIG. 11, Table 1). […] The gated region for all samples was determined from the positive control (Sample A). […]

HES cells [5] = assay: Toxicity of trehalose in growth medium; assay type: cell-based, human; details: cell exposure to growth medium containing trehalose

C[S+](C)[O-] [DMSO, dimethyl sulfoxide]
protection from membrane rupture during cryopreservation (HES cells [1]): protect HES cells from membrane rupture

OC[C@H]1O[C@H](O[C@H]2O[C@H](CO)[C@@H](O)[C@H](O)[C@H]2O)[C@H](O)[C@@H](O)[C@@H]1O [trehalose]
cells surviving a freeze-thaw cycle (human keratinocytes): approximately 75%
increase in viability compared to DMSO alone (HES cells [2]; 35 mM trehalose loaded 24 hours, 10% DMSO and FBS above 50%, p<0.05): 25%
viability vs loading for 24 hours or not loading (HES cells [2]; 35 mM trehalose loaded 48 hours): lower viability
additional protection during freezing and thawing (HES cells [2]; 35 mM trehalose loading, 10% DMSO and FBS concentrations less than 50%): no additional protection
protection during freezing and thawing (HES cells [2]; 35 mM trehalose loading, absence of DMSO): no protection
cells surviving a freeze-thaw cycle (murine 3T3 fibroblasts): approximately 75%
viable cell recovery (human pancreatic islets): doubles
colonies recovered (HES colonies; loaded with 35 mM trehalose for 24 hours): 82%±5%
colonies recovered (HES colonies; loaded with 35 mM trehalose for 48 hours): 48%±10%
increase in viability [3]: 7-20%
Percent of cells gated (SSEA4) [4]: 81.5
trehalose concentration in growth medium causing toxicity (HES cells [5]): greater than 35 mM
